PubChem BioAssay (NCI)
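Compound exposure: 48 hours, 5 concentrations, 96-well plates. At the GI50, growth is halved. TGI: total growth inhibition.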

Each compound was assayed on RPMI-8226 leukemia (assay: growth of human tumour cells (NCI), 48 h).

| SMILES | GI50 [µM] | TGI [µM] |
| --- | --- | --- |
| COc1ccc(C2=C(c3ccc(OC)cc3)C(=O)N3CCCC3C2)cc1 (stereo unspecified) | > 100 | > 100 |

The compounds below were run on NCI-H226 lung (assay: growth of human tumour cells (NCI), 48 h).

| SMILES | TGI [µM] | GI50 [µM] |
| --- | --- | --- |
| COC(=O)c1s/c(=N\C(=S)N(C)C)n(-c2ccc(Cl)cc2)c1C(=O)OC | > 100 |  |
| COC1CCCCN1C(=O)c1ccccc1 (stereo unspecified) | > 25.3 |  |
| O=C(O)CCSC(CC1(c2ccc(Cl)cc2)NC(=O)CCS1)c1ccccc1 (stereo unspecified) | 40.8 |  |
| C=C1C(=O)OC2CC(C)C(C(O)CC(C)O)=CCC12 (stereo unspecified) | 72.7 |  |
| O=c1nc(N2CCNCC2)oc2cc(Cl)oc(=O)c12 | 37.9 |  |
| COc1ccc(C2=C(c3ccc(OC)cc3)C(=O)N3CCCC3C2)cc1 (stereo unspecified) | > 100 | 37.1 |

The compounds below were run on UO-31 renal (assay: growth of human tumour cells (NCI), 48 h).

| SMILES | TGI [µM] | GI50 [µM] |
| --- | --- | --- |
| COC(=O)c1s/c(=N\C(=S)N(C)C)n(-c2ccc(Cl)cc2)c1C(=O)OC | > 100 |  |
| COC1CCCCN1C(=O)c1ccccc1 (stereo unspecified) | > 25.3 |  |
| O=C(O)CCSC(CC1(c2ccc(Cl)cc2)NC(=O)CCS1)c1ccccc1 (stereo unspecified) | > 54.8 |  |
| C=C1C(=O)OC2CC(C)C(C(O)CC(C)O)=CCC12 (stereo unspecified) | 30.7 |  |
| O=c1nc(N2CCNCC2)oc2cc(Cl)oc(=O)c12 | 23 |  |
| COc1ccc(C2=C(c3ccc(OC)cc3)C(=O)N3CCCC3C2)cc1 (stereo unspecified) | > 100 | 19.7 |

The compounds below were run on KM12 colon (assay: growth of human tumour cells (NCI), 48 h).

| SMILES | TGI [µM] | GI50 [µM] |
| --- | --- | --- |
| COC(=O)c1s/c(=N\C(=S)N(C)C)n(-c2ccc(Cl)cc2)c1C(=O)OC | > 100 |  |
| COC1CCCCN1C(=O)c1ccccc1 (stereo unspecified) | > 25.3 |  |
| O=C(O)CCSC(CC1(c2ccc(Cl)cc2)NC(=O)CCS1)c1ccccc1 (stereo unspecified) | 14.1 |  |
| C=C1C(=O)OC2CC(C)C(C(O)CC(C)O)=CCC12 (stereo unspecified) | 46.4 |  |
| O=c1nc(N2CCNCC2)oc2cc(Cl)oc(=O)c12 | 15.5 |  |
| COc1ccc(C2=C(c3ccc(OC)cc3)C(=O)N3CCCC3C2)cc1 (stereo unspecified) | > 100 | 9.26 |

What follows are compounds tested on SNB-78 CNS (assay: growth of human tumour cells (NCI), 48 h).

| SMILES | TGI [µM] |
| --- | --- |
| COC(=O)c1s/c(=N\C(=S)N(C)C)n(-c2ccc(Cl)cc2)c1C(=O)OC | > 100 |
| COC1CCCCN1C(=O)c1ccccc1 (stereo unspecified) | > 25.3 |

Each compound was assayed on M19-MEL melanoma (assay: growth of human tumour cells (NCI), 48 h).

| SMILES | TGI [µM] |
| --- | --- |
| COC(=O)c1s/c(=N\C(=S)N(C)C)n(-c2ccc(Cl)cc2)c1C(=O)OC | > 100 |

These compounds were tested on 786-0 renal (assay: growth of human tumour cells (NCI), 48 h).

| SMILES | TGI [µM] | GI50 [µM] |
| --- | --- | --- |
| COC(=O)c1s/c(=N\C(=S)N(C)C)n(-c2ccc(Cl)cc2)c1C(=O)OC | > 100 |  |
| COC1CCCCN1C(=O)c1ccccc1 (stereo unspecified) | > 25.3 |  |
| O=C(O)CCSC(CC1(c2ccc(Cl)cc2)NC(=O)CCS1)c1ccccc1 (stereo unspecified) | 20.9 |  |
| C=C1C(=O)OC2CC(C)C(C(O)CC(C)O)=CCC12 (stereo unspecified) | 30.2 |  |
| O=c1nc(N2CCNCC2)oc2cc(Cl)oc(=O)c12 | 8.66 |  |
| COc1ccc(C2=C(c3ccc(OC)cc3)C(=O)N3CCCC3C2)cc1 (stereo unspecified) | > 100 | 9.92 |

These compounds were tested on RXF 393 renal (assay: growth of human tumour cells (NCI), 48 h).

| SMILES | TGI [µM] | GI50 [µM] |
| --- | --- | --- |
| COC(=O)c1s/c(=N\C(=S)N(C)C)n(-c2ccc(Cl)cc2)c1C(=O)OC | > 100 |  |
| COC1CCCCN1C(=O)c1ccccc1 (stereo unspecified) | > 25.3 |  |
| O=C(O)CCSC(CC1(c2ccc(Cl)cc2)NC(=O)CCS1)c1ccccc1 (stereo unspecified) | > 54.8 |  |
| C=C1C(=O)OC2CC(C)C(C(O)CC(C)O)=CCC12 (stereo unspecified) | 30.5 |  |
| O=c1nc(N2CCNCC2)oc2cc(Cl)oc(=O)c12 | 24.8 |  |
| COc1ccc(C2=C(c3ccc(OC)cc3)C(=O)N3CCCC3C2)cc1 (stereo unspecified) | > 83.2 | 17.7 |

These compounds were tested on MDA-N (assay: growth of human tumour cells (NCI), 48 h).

| SMILES | TGI [µM] | GI50 [µM] |
| --- | --- | --- |
| O=C(O)CCSC(CC1(c2ccc(Cl)cc2)NC(=O)CCS1)c1ccccc1 (stereo unspecified) | 31.8 |  |
| C=C1C(=O)OC2CC(C)C(C(O)CC(C)O)=CCC12 (stereo unspecified) | 42.3 |  |
| O=c1nc(N2CCNCC2)oc2cc(Cl)oc(=O)c12 | 9.06 |  |
| COc1ccc(C2=C(c3ccc(OC)cc3)C(=O)N3CCCC3C2)cc1 (stereo unspecified) | > 100 | 12.2 |

Each compound was assayed on MDA-MB-435 (assay: growth of human tumour cells (NCI), 48 h).

| SMILES | TGI [µM] | GI50 [µM] |
| --- | --- | --- |
| O=C(O)CCSC(CC1(c2ccc(Cl)cc2)NC(=O)CCS1)c1ccccc1 (stereo unspecified) | 29.8 |  |
| C=C1C(=O)OC2CC(C)C(C(O)CC(C)O)=CCC12 (stereo unspecified) | > 59.2 |  |
| O=c1nc(N2CCNCC2)oc2cc(Cl)oc(=O)c12 | 18.5 |  |
| COc1ccc(C2=C(c3ccc(OC)cc3)C(=O)N3CCCC3C2)cc1 (stereo unspecified) | > 100 | 12.3 |

What follows are compounds tested on HOP-92 NSCLC (assay: growth of human tumour cells (NCI), 48 h).

| SMILES | TGI [µM] | GI50 [µM] |
| --- | --- | --- |
| COC1CCCCN1C(=O)c1ccccc1 (stereo unspecified) | > 25.3 |  |
| O=C(O)CCSC(CC1(c2ccc(Cl)cc2)NC(=O)CCS1)c1ccccc1 (stereo unspecified) | 62.2 |  |
| C=C1C(=O)OC2CC(C)C(C(O)CC(C)O)=CCC12 (stereo unspecified) | 27.8 |  |
| O=c1nc(N2CCNCC2)oc2cc(Cl)oc(=O)c12 | 15.6 |  |
| COc1ccc(C2=C(c3ccc(OC)cc3)C(=O)N3CCCC3C2)cc1 (stereo unspecified) | > 100 | > 95.1 |

Each compound was assayed on UACC-62 melanoma (assay: growth of human tumour cells (NCI), 48 h).

| SMILES | TGI [µM] | GI50 [µM] |
| --- | --- | --- |
| COC(=O)c1s/c(=N\C(=S)N(C)C)n(-c2ccc(Cl)cc2)c1C(=O)OC | > 10 |  |
| COC1CCCCN1C(=O)c1ccccc1 (stereo unspecified) | > 25.3 |  |
| O=C(O)CCSC(CC1(c2ccc(Cl)cc2)NC(=O)CCS1)c1ccccc1 (stereo unspecified) | 39.7 |  |
| C=C1C(=O)OC2CC(C)C(C(O)CC(C)O)=CCC12 (stereo unspecified) | 44.2 |  |
| O=c1nc(N2CCNCC2)oc2cc(Cl)oc(=O)c12 | 25.2 |  |
| COc1ccc(C2=C(c3ccc(OC)cc3)C(=O)N3CCCC3C2)cc1 (stereo unspecified) | > 100 | 9.09 |

Each compound was assayed on HT29 colon (assay: growth of human tumour cells (NCI), 48 h).

| SMILES | TGI [µM] | GI50 [µM] |
| --- | --- | --- |
| COC(=O)c1s/c(=N\C(=S)N(C)C)n(-c2ccc(Cl)cc2)c1C(=O)OC | > 100 |  |
| O=C(O)CCSC(CC1(c2ccc(Cl)cc2)NC(=O)CCS1)c1ccccc1 (stereo unspecified) | 38.1 |  |
| C=C1C(=O)OC2CC(C)C(C(O)CC(C)O)=CCC12 (stereo unspecified) | 35.7 |  |
| O=c1nc(N2CCNCC2)oc2cc(Cl)oc(=O)c12 | 12.9 |  |
| COc1ccc(C2=C(c3ccc(OC)cc3)C(=O)N3CCCC3C2)cc1 (stereo unspecified) | > 100 | 6.19 |

These compounds were tested on HCT-116 colon (assay: growth of human tumour cells (NCI), 48 h).

| SMILES | TGI [µM] | GI50 [µM] |
| --- | --- | --- |
| COC(=O)c1s/c(=N\C(=S)N(C)C)n(-c2ccc(Cl)cc2)c1C(=O)OC | > 100 |  |
| COC1CCCCN1C(=O)c1ccccc1 (stereo unspecified) | > 25.3 |  |
| O=C(O)CCSC(CC1(c2ccc(Cl)cc2)NC(=O)CCS1)c1ccccc1 (stereo unspecified) | 17.4 |  |
| C=C1C(=O)OC2CC(C)C(C(O)CC(C)O)=CCC12 (stereo unspecified) | 21.9 |  |
| O=c1nc(N2CCNCC2)oc2cc(Cl)oc(=O)c12 | 7.53 |  |
| COc1ccc(C2=C(c3ccc(OC)cc3)C(=O)N3CCCC3C2)cc1 (stereo unspecified) | 32.8 | 2.96 |

The compounds below were run on ACHN renal (assay: growth of human tumour cells (NCI), 48 h).

| SMILES | TGI [µM] | GI50 [µM] |
| --- | --- | --- |
| COC(=O)c1s/c(=N\C(=S)N(C)C)n(-c2ccc(Cl)cc2)c1C(=O)OC | > 100 |  |
| COC1CCCCN1C(=O)c1ccccc1 (stereo unspecified) | > 25.3 |  |
| O=C(O)CCSC(CC1(c2ccc(Cl)cc2)NC(=O)CCS1)c1ccccc1 (stereo unspecified) | > 59.4 |  |
| C=C1C(=O)OC2CC(C)C(C(O)CC(C)O)=CCC12 (stereo unspecified) | 8.95 |  |
| O=c1nc(N2CCNCC2)oc2cc(Cl)oc(=O)c12 | 23.5 |  |
| COc1ccc(C2=C(c3ccc(OC)cc3)C(=O)N3CCCC3C2)cc1 (stereo unspecified) | > 100 | 15 |

Each compound was assayed on CCRF-CEM leukemia (assay: growth of human tumour cells (NCI), 48 h).

| SMILES | TGI [µM] | GI50 [µM] |
| --- | --- | --- |
| COC(=O)c1s/c(=N\C(=S)N(C)C)n(-c2ccc(Cl)cc2)c1C(=O)OC | > 100 |  |
| O=C(O)CCSC(CC1(c2ccc(Cl)cc2)NC(=O)CCS1)c1ccccc1 (stereo unspecified) | 24.8 |  |
| C=C1C(=O)OC2CC(C)C(C(O)CC(C)O)=CCC12 (stereo unspecified) | 14.3 |  |
| O=c1nc(N2CCNCC2)oc2cc(Cl)oc(=O)c12 | 47.8 |  |
| COc1ccc(C2=C(c3ccc(OC)cc3)C(=O)N3CCCC3C2)cc1 (stereo unspecified) | > 48.2 | 5.49 |

Each compound was assayed on CAKI-1 renal (assay: growth of human tumour cells (NCI), 48 h).

| SMILES | TGI [µM] | GI50 [µM] |
| --- | --- | --- |
| COC(=O)c1s/c(=N\C(=S)N(C)C)n(-c2ccc(Cl)cc2)c1C(=O)OC | > 100 |  |
| COC1CCCCN1C(=O)c1ccccc1 (stereo unspecified) | > 25.3 |  |
| O=C(O)CCSC(CC1(c2ccc(Cl)cc2)NC(=O)CCS1)c1ccccc1 (stereo unspecified) | 37.3 |  |
| C=C1C(=O)OC2CC(C)C(C(O)CC(C)O)=CCC12 (stereo unspecified) | 9.26 |  |
| O=c1nc(N2CCNCC2)oc2cc(Cl)oc(=O)c12 | 9.49 |  |
| COc1ccc(C2=C(c3ccc(OC)cc3)C(=O)N3CCCC3C2)cc1 (stereo unspecified) | > 100 | 21.1 |
